Experimental data reported in patent US9497960B2, “Biocide compositions comprising alkoxylation products of isoamyl alcohol derivatives” (COGNIS IP MANAGEMENT GMBH, priority 2010, dated 2016).

Assays:
[1] = test system: barley powdery mildew (Blumeria graminis f. sp. hordei); assay: Curative greenhouse trial with Opus against barley powdery mildew; assay type: in vivo, Blumeria graminis f. sp. hordei on barley; conditions: for Infection rate of barley powdery mildew after treatment with fungicides, Opus: curative, Opus 10 g/ha, adjuvant 50 ml/ha, inoculation 2 days prior to application, assessment 14 DAT, barley leaf segments; for Sum of infection rates: sum of Opus (curative) and Amistar (protective) trials
Protocol: Opus SC125 (BASF) was tested to control barley powdery mildew (BPM) in a curative greenhouse trial, Azoxystrobin SC 250 in a protective trial. In each case, barley was cultivated in a substrate “Frustorder Erde” for three weeks. Each treatment was replicated 14 times. The adjuvant dose rate in each treatment was 50 ml/ha. Inoculation of the leaves with powdery mildew (Blumeria graminis f. sp. hordei) was done 2 days prior to application to test Opus' curative action. From the stem, leaf segments were cut off with a length of 10 cm using the flag leaf (F) and 2nd leaf (F-1). Altogether, the leaves of each were placed on benzimidazol agar i.e. 0.5% Agar with 40 ppm benzimidazol. The concentration of Opus for the leaf application was 10 g/ha. Assessment 14 days after treatment (14 DAT) of the efficacy against powdery mildew was done by counting the mildew pustules per leaf on a length of 7 cm. The assessment of the infection rate was conducted by a trained biologist.

[2] = test system: barley powdery mildew (BPM); assay: Protective trial with Amistar (Azoxystrobin SC 250) against barley powdery mildew; assay type: in vivo, Blumeria graminis f. sp. hordei on barley; conditions: 5 g/ha azoxystrobin, adjuvant 50 ml/ha, leaves cut 5 h after application, incubation 10 d
Protocol: Opus SC125 (BASF) was tested to control barley powdery mildew (BPM) in a curative greenhouse trial, Azoxystrobin SC 250 in a protective trial. In each case, barley was cultivated in a substrate “Frustorder Erde” for three weeks. Each treatment was replicated 14 times. The adjuvant dose rate in each treatment was 50 ml/ha. 5 h after application with the equivalent of 5 g/ha azoxystrobin, leaf segments were cut off at a length of 7 cm from the stem. The leaves of the F and F-1 leaf were placed on agar. After the inoculation, the incubation time was 10 d. The assessment of the infection rate was conducted by a trained biologist.

[3] = Dynamic and quasistatic surface tension, Krüss Bubble Pressure Tensiometer BP2; assay type: physicochemical; conditions: 0.1% in demineralised water, Kruess BP 2, 20° C.; for Surface tension at 10 Hz: dynamic; for Surface tension at 0.1 Hz: quasistatic
Protocol: (§1) Definition of “quasistatic”: Static or equilibrium surface tension at an air-liquid interface can be determined by the Du Noüy ring method, the Wilhelmy plate etc. […] To avoid such problems, a dynamic method is used but the frequency is reduced to 0.1 Hz or less, thus close enough to equilibrium conditions. Dynamic surface tension is determined at a frequency of 10 Hz. It was determined at 20° C. with the Krüss Bubble Pressure Tensiometer BP2, available from Krüss GmbH, Borsteler Chaussee 85-99, 22453 Hamburg, Germany. Foam potential was tested with SITA foam tester R-2000, available from SITA Messtechnik GmbH, Gostritzer Str. 61-63, 01217 Dresden, Germany. The results are compiled in Tables 1 and 2

[4] = Foam potential / foam height of aqueous adjuvant solutions; assay type: physicochemical; conditions: 0.1% aqueous solution/dispersion; Cipac MT 47, Cipac water D
Protocol: as §1

With `CC(C)CCC(COCCOCCOCCO)C(C)C` (centres unmarked) [Example 5, Isoamylguerbet + 3EO] the “Infection rate of barley powdery mildew after treatment with fungicides, Opus” value (from here on “Infection rate of barley powdery mildew … Opus”) [1] was 20%, the “Sum of infection rates” value [1] was 24% and the “Infection rate of barley powdery mildew after treatment with fungicides, Amistar” value (“Infection rate … Amistar” for short) [2] was 4%. The “Surface tension at 10 Hz” value [3] was 42 mN/m, the “Surface tension at 0.1 Hz” value [3] was 30 mN/m and the “Foam hight after 1 m” value [4] was 0 mL. For the same compound, the “Foam hight after 5 m” value [4] was 0 mL.

With `CC(C)CCC(COCCOCCOCCOCCOCCO)C(C)C` (centres unmarked) [Example 4, Isoamylguerbet + 5EO] the “Infection rate of barley powdery mildew … Opus” value [1] was 12%, the “Sum of infection rates” value [1] was 15% and the “Infection rate … Amistar” value [2] was 3%. The “Surface tension at 10 Hz” value [3] was 39 mN/m, the “Surface tension at 0.1 Hz” value [3] was 30 mN/m and the “Foam hight after 1 m” value [4] was 0 mL. For the same compound, the “Foam hight after 5 m” value [4] was 0 mL.

For Isoamylguerbet + 3PO + 3EO [Example 1], the “Infection rate of barley powdery mildew … Opus” value [1] was 3%, the “Sum of infection rates” value [1] was 3% and the “Infection rate … Amistar” value [2] was 0%. The “Surface tension at 10 Hz” value [3] was 45 mN/m, the “Surface tension at 0.1 Hz” value [3] was 28 mN/m and the “Foam hight after 1 m” value [4] was 1 mL. For the same compound, the “Foam hight after 5 m” value [4] was 0 mL.

In the case of `CC(C)CCC(COCCOCCOCCOCCOCCOCCOCCOCCOCCOCCO)C(C)C` (centres unmarked) [Example 3, Isoamylguerbet + 10EO], the “Infection rate of barley powdery mildew … Opus” value [1] is reported as 7%, the “Sum of infection rates” value [1] is reported as 12% and the “Infection rate … Amistar” value [2] is reported as 5%. For the same compound, the “Surface tension at 10 Hz” value [3] was 46 mN/m, the “Surface tension at 0.1 Hz” value [3] was 36 mN/m and the “Foam hight after 1 m” value [4] was 3 mL. For the same compound, the “Foam hight after 5 m” value [4] was 2 mL.

In the case of Isoamylguerbet + 3EO + 3PO [Example 2], the “Infection rate of barley powdery mildew … Opus” value [1] is reported as 8%, the “Sum of infection rates” value [1] is reported as 8% and the “Infection rate … Amistar” value [2] is reported as 0%. The “Surface tension at 10 Hz” value [3] was 45 mN/m, the “Surface tension at 0.1 Hz” value [3] was 32 mN/m and the “Foam hight after 1 m” value [4] was 0 mL. For the same compound, the “Foam hight after 5 m” value [4] was 0 mL.
